Two compounds from patent US7691904B2, “pH sensitive prodrugs of 2,6-diisopropylphenol” (Auspex Pharmaceuticals, Inc, priority 2003, dated 2010) can be followed below.

Data set [1] deals with Female mice. Nature of the data set: In-vivo induction of anesthesia (graded sedation level after IP injection). The protocol: Prodrugs were formulated as aqueous isotonic solutions at pH 7.4 in sterile water before administration to animals. Female mice were obtained from Charles River Laboratories (Wilmington, Mass.). The volume of injection was set at […] and animals were dosed IP at 100 mg/kg, 125 mg/kg, 150 mg/kg and 200 mg/kg. The monitoring of distinguishable levels of sedation started immediately after an injection and was continued for a 2-h period post-injection. The sedation level was graded according to the behavioral and reflex activity of animals injected with progressively increasing doses of each compound. Animals were graded as alert and normal when there was no observable change in their behavior; alert with decreased motor activity when ataxia with some ability to walk was observed; and awake and recumbent when loss of righting reflex occurred. Animals reaching somnolence but retaining response to painful stimuli (toe or tail pinch) were graded as sedated with normal reflexes, whereas animals that lost response to painful stimuli were graded as sedated with decreased reflexes (anesthetic level of sedation). Death resulting from the overdose was also recorded as a last level.

Data set [2] in a line: pH stability in pH=4.1 sodium acetate buffer, analyzed by LC-MS. Type of data set: physicochemical. As to conditions: 100 mg in 10 mL pH=4.1 sodium acetate buffer, ambient temperature, 48 hours. The procedure:
A solution was prepared by dissolving 100 mg of N-(2-Piperidin-1-yl-ethyl)-succinamic acid 2,6-diisopropylphenyl ester hydrochloride in 10 mL of pH=4.1 sodium acetate buffer. The buffer was prepared by adding NaOH to a 20% aqueous acetic acid solution until the desired pH was reached. The solution was incubated at ambient temperature and analyzed by LC-MS after 48 hours.

As to `CC(C)c1cccc(C(C)C)c1OC(=O)CCC(=O)NCCN1CCCCC1.Cl` [N-(2-piperidin-1-yl-ethyl)-succinamic acid 2,6-diisopropylphenyl ester hydrochloride], in data set [1] (100 mg/kg), the Duration of anesthesia amounted to 11 min and the Full anesthesia entry was “not reached”. In data set [1] (100 mg/kg, time post injection), the “End of effect (time post injection, in parentheses)” value worked out at 13 min and the Onset of sedation was found to be 2 min. Also, in data set [1] (125 mg/kg), the Duration of sedation amounted to 13 min and the Full anesthesia result is recorded as “not reached”. In addition, in data set [1] (125 mg/kg, time post injection), the “End of sedation (time post injection, in parentheses)” value is 15 min and the Onset of sedation was 2 min. For the same compound, in data set [1] (200 mg/kg), the Duration of anesthesia stood at 12 min. In addition, in data set [1] (200 mg/kg, time post injection), the “End of anesthesia (time post injection, in parentheses)” value (from here on “End of anesthesia”) worked out at 16 min; the Full anesthesia was found to be 5 min; the Onset of sedation was found to be 2 min. Besides, the Decomposition in solution entry in data set [2] is “No trace of decomposition”.

In data set [1] (150 mg/kg), `CC(C)c1cccc(C(C)C)c1OC(=O)CCC(=O)NCCN1CCCC1.Cl` [N-(2-pyrrolidin-1-yl-ethyl)-succinamic acid 2,6-diisopropylphenyl ester hydrochloride] showed a Duration of anesthesia of 10 min. Moreover, in data set [1] (150 mg/kg, time post injection), the “End of anesthesia” value came out at 14 min; the Full anesthesia was 4 min; the Onset of sedation amounted to 2 min. The Duration of anesthesia in data set [1] (200 mg/kg) stood at 21 min. Moreover, in data set [1] (200 mg/kg, time post injection), the “End of anesthesia” value was found to be 25 min; the Full anesthesia worked out at 4 min; the Onset of sedation amounted to 2 min.
